{"source": "paper PMC10762035", "about": "“Molecular basis of human trace amine-associated receptor 1 activation” (Nature Communications, 2024)", "assay_type_in_all_cases": "cell-based", "key": {"hTA1": {"biological_target": "T1, hTA1 (Homo sapiens, UniProt Q96RJ0)", "T1 construct": "expressed in transfected cells; host or cells: HEK293T", "T1 sequence (Q96RJ0 1-339)": "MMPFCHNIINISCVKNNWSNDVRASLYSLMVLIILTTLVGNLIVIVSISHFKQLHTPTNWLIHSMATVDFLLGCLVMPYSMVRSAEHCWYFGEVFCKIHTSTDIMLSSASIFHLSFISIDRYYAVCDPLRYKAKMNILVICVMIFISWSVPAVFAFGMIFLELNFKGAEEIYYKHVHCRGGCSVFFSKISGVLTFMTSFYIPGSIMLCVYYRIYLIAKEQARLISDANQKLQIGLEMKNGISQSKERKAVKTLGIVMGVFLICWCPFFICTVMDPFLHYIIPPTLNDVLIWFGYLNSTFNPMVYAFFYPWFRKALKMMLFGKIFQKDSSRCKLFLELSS", "assay": "GloSensor cAMP accumulation assay, concentration response, wild-type hTA1 in transfected HEK293T cells;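 on all read-outs here: luminescence read after 30 min compound exposure at room temperature in cells preloaded with D-Luciferin, reflecting Gs-driven cAMP rise, efficacy scaled to the maximal β-PEA response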", "details": "for Emax values, Mean: WT, β-PEA = 100; for Dose-response curves for asenapine vs endogenous trace amines: log[Compound], replicate values (N=2)"}, "[1]": {"biological_target": "T2, β2AR-Nterm-hTA1-F112^3.41W (CryoEM Construct) (Homo sapiens, UniProt Q96RJ0, F112W)", "T2 construct": "FLAG (N); 10xHis (N); TEV protease site (N); expressed in transfected cells; host or cells: HEK293T", "T2 sequence (Q96RJ0 with tags, fused parts or gaps F112W)": "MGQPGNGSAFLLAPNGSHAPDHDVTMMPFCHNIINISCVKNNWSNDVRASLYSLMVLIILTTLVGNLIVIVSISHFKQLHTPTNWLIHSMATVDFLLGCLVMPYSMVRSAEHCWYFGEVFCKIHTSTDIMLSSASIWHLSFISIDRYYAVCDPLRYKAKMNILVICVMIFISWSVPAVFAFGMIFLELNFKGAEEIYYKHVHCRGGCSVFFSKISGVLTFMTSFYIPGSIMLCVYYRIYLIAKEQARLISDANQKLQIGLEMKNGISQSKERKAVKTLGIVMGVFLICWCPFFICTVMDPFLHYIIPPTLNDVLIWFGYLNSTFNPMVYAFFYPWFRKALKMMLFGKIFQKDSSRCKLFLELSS", "assay": "GloSensor cAMP accumulation assay, cryoEM construct;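 further: cells transiently co-transfected with the receptor construct and GloSensor cAMP biosensor, luminescence read after 30 min compound exposure at room temperature in the dark as cAMP accumulation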;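 on Normalized Luminescence Counts (N=2): normalized to the maximum response of β-PEA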"}, "hTA1 C5S": {"biological_target": "T3, hTA1 C5S (Homo sapiens, UniProt Q96RJ0, C5S)", "T3 construct": "expressed in transfected cells; host or cells: HEK293T", "T3 sequence (Q96RJ0 1-339 C5S)": "T1 sequence (Q96RJ0 1-339) with C5S", "assay": "GloSensor cAMP accumulation assay, C5S mutant", "details": "for C5S - Normalized Luminescence Counts (N=2): log[Compound], single wells"}, "[2]": {"details": "Cryo EM Construct, mean of each independent experiment (3 replicates)"}}, "note": "Where a chain is given by its changes, count along the chain named. Where “and” joins values, the source holds several entries; their conditions need not be identical. Identical values can stand only once.", "data": [{"smiles": "NCCc1ccccc1", "note": "[β-PEA, β-phenethylamine]", "values": [{"measurement": "Emax values, Mean", "setting": "hTA1; mean of one experiment (3 replicates)", "result": 100}, {"measurement": "Emax values, Mean", "setting": "hTA1; single experiments (3 replicates each)", "result": 100}, {"measurement": "Dose-response curves for asenapine vs endogenous trace amines", "setting": "hTA1; M = -5", "result": "114.55 and 104.58 and 118.623 and 102.53 and 95.7683 and 107.085"}, {"measurement": "Dose-response curves for asenapine vs endogenous trace amines", "setting": "hTA1; M = -5.522", "result": "96.3904 and 87.8446 and 97.5922 and 98.0692 and 90.9789 and 92.0588"}, {"measurement": "Dose-response curves for asenapine vs endogenous trace amines", "setting": "hTA1; M = -6", "result": "88.2006 and 75.1148 and 94.0536 and 103.14 and 88.8658 and 89.805"}, {"measurement": "Dose-response curves for asenapine vs endogenous trace amines", "setting": "hTA1; M = -6.522", "result": "73.7573 and 64.299 and 91.1383 and 74.7791 and 68.7219 and 73.7461"}, {"measurement": "Dose-response curves for asenapine vs endogenous trace amines", "setting": "hTA1; M = -7", "result": "70.4636 and 45.5827 and 61.4726 and 66.5619 and 44.258 and 53.6961"}, {"measurement": "Dose-response curves for asenapine vs endogenous trace amines", "setting": "hTA1; M = -7.522", "result": "36.1467 and 21.3027 and 35.9464 and 26.7905 and 17.9158 and 22.3766"}, {"measurement": "Dose-response curves for asenapine vs endogenous trace amines", "setting": "hTA1; M = -8", "result": "22.727 and 16.7405 and 21.3472 and 13.3611 and 11.9525 and 11.6238"}, {"measurement": "Dose-response curves for asenapine vs endogenous trace amines", "setting": "hTA1; M = -8.522", "result": "4.5 and 4.523 and 5.969 and 4.393 and 2.514 and 2.6083"}, {"measurement": "Dose-response curves for asenapine vs endogenous trace amines", "setting": "hTA1; M = -9", "result": "1.986 and 1.318 and 1.8743 and 1.716 and 1.012 and 1.106"}, {"measurement": "Dose-response curves for asenapine vs endogenous trace amines", "setting": "hTA1; M = -9.522", "result": "-1.063 and -1.33 and -0.4402 and -0.06817 and 0.1666 and -0.4908"}, {"measurement": "Dose-response curves for asenapine vs endogenous trace amines", "setting": "hTA1; M = -10", "result": "-0.596 and -1.264 and -0.5515 and -0.4438 and -0.7725 and -0.6786"}, {"measurement": "Dose-response curves for asenapine vs endogenous trace amines", "setting": "hTA1; M = -10.522", "result": "-1.3749 and -1.931 and -0.6405 and 0.0727 and -0.5847 and -1.101"}, {"measurement": "Dose-response curves for asenapine vs endogenous trace amines", "setting": "hTA1; M = -11", "result": "-0.1286 and -1.241 and 0.2497 and 0.6362 and -0.3499 and -0.7725"}, {"measurement": "Dose-response curves for asenapine vs endogenous trace amines", "setting": "hTA1; M = -11.522", "result": "-0.01735 and -1.575 and -0.7963 and 0.5892 and -0.3969 and -0.256"}, {"measurement": "Dose-response curves for asenapine vs endogenous trace amines", "setting": "hTA1; M = -12", "result": "-1.353 and -1.3749 and -1.286 and 0.02574 and -0.4908 and -0.3029"}, {"measurement": "Dose-response curves for asenapine vs endogenous trace amines", "setting": "hTA1; M = -12.522", "result": "-1.152 and -1.664 and -0.9075 and 0.5892 (2×) and 0.4483"}, {"measurement": "Span ± SEM (Emax normalized to β-PEA)", "setting": "hTA1; wt hTA1, HEK293T, n=3", "result": "100 ± 2.26"}, {"measurement": "pEC50 ± SEM", "setting": "hTA1; wt hTA1, HEK293T, n=3", "result": "7.09 ± 0.05"}, {"measurement": "EC50", "setting": "hTA1; wt hTA1, HEK293T, n=3, read-out: EC50", "result": 80.6, "unit": "nM"}, {"measurement": "Emax", "setting": "hTA1; wt hTA1, relative to β-PEA", "result": 100.0, "unit": "%"}, {"measurement": "ΔEmax values (each mutant value - WT average), Mean", "setting": "[1]; Cryo EM Construct minus WT average", "result": 0}, {"measurement": "Emax values, Mean", "setting": "[1]; [2]", "result": 0.8322}, {"measurement": "pEC50 values, Mean", "setting": "[1]; [2]", "result": "7.553 and 7.926"}, {"measurement": "Normalized Luminescence Counts (N=2)", "setting": "[1]; CryoEM Construct, log[Compound], M = -5, single replicates", "result": "99.4824 and 93.6783 and 105.677 and 107.109"}, {"measurement": "Span ± SEM (Emax normalized to β-PEA)", "setting": "[1]; CryoEM Construct, n=2", "result": "100 ± 1.84"}, {"measurement": "pEC50 ± SEM", "setting": "[1]; CryoEM Construct, n=2", "result": "7.75 ± 0.04"}, {"measurement": "EC50", "setting": "[1]; CryoEM Construct, n=2, read-out: EC50", "result": 17.4, "unit": "nM"}, {"measurement": "Span ± SEM (Emax normalized to β-PEA)", "setting": "hTA1 C5S; C5S, n=2", "result": "100 ± 2.22"}, {"measurement": "pEC50 ± SEM", "setting": "hTA1 C5S; C5S, n=2", "result": "7.04 ± 0.05"}, {"measurement": "EC50", "setting": "hTA1 C5S; C5S, n=2, read-out: EC50", "result": 90.7, "unit": "nM"}, {"measurement": "ΔEmax values (each mutant value - WT average), Mean", "setting": "hTA1 C5S; hTA1 C5S minus WT average", "result": 0}, {"measurement": "ΔpEC50 values (each mutant value - WT average), Mean", "setting": "hTA1 C5S; hTA1 C5S minus WT average", "result": "0.0587 and -0.1606"}, {"measurement": "pEC50 values, Mean", "setting": "hTA1 C5S; hTA1 C5S, mean of 3 replicates, one line per independent experiment", "result": "7.152 and 6.9329"}, {"measurement": "Emax values, Mean", "setting": "hTA1 C5S; hTA1 C5S, β-PEA = 100, mean of 3 replicates, one line per independent experiment", "result": 100}, {"measurement": "C5S - Normalized Luminescence Counts (N=2)", "setting": "hTA1 C5S; M = -5", "result": "105.865 and 101.779 and 112.458 and 98.7643 and 96.9001 and 118.028"}, {"measurement": "C5S - Normalized Luminescence Counts (N=2)", "setting": "hTA1 C5S; M = -5.522", "result": "88.1188 and 112.932 and 94.5762 and 114.438 and 73.9771 and 93.1716"}, {"measurement": "C5S - Normalized Luminescence Counts (N=2)", "setting": "hTA1 C5S; M = -6", "result": "83.9419 and 90.8734 and 98.6952 and 79.8459 and 79.6388"}, {"measurement": "C5S - Normalized Luminescence Counts (N=2)", "setting": "hTA1 C5S; M = -6.522", "result": "76.5362 and 74.7073 and 70.3723 and 75.427 and 66.8654 and 70.3867"}, {"measurement": "C5S - Normalized Luminescence Counts (N=2)", "setting": "hTA1 C5S; M = -7", "result": "61.9506 and 59.2638 and 58.7445 and 43.9424 and 45.3233 and 47.3256"}, {"measurement": "C5S - Normalized Luminescence Counts (N=2)", "setting": "hTA1 C5S; M = -8.522", "result": "3.721 and 3.676 and 4.421 and 4.379 and 2.308 and 3.965"}]}]}
